Reference: patent US11932628B2, “Selective small molecule peptidomimetic melanocortin ligands” (REGENTS OF THE UNIVERSITY OF MINNESOTA, priority 2021, dated 2024)
Like-named read-outs stand apart in the source and are kept apart here. One block for each compound: values may come before it.

Columns and labels:
[1] = biological target: mMC1R (Mus musculus, UniProt Q01727); test: cAMP based functional bioassay (CRE/β-galactosidase reporter), agonist activity at mMC1R
Method: (§1) The compounds were evaluated using a whole cell assay.
(§2) Compounds were dissolved in DMSO at a stock concentration of 10^−2 M and stored at −20° C. until assayed. HEK-293 cells stably expressing the selected melanocortin receptors were transiently transfected with 4 μg of CRE/β-galactosidase reporter gene. Briefly, 5000-15000 post transfection cells were plated into collagen treated 96-well plates (Nunc) and incubated overnight. […] The assay media was aspirated, and 50 μL of lysis buffer (250 mM Tris-HCl pH=8.0 and 0.1% Triton X-100) was added. The plates were stored at −80° C. overnight. The plates containing the cell lysates were thawed the following day. Aliquots of 10 μL were taken from each well and transferred to another 96-well plate for relative protein determination. To the cell lysate plates, 40 μL of phosphate-buffered saline with 0.5% BSA was added to each well. Subsequently, 150 μL of substrate buffer (60 mM sodium phosphate, 1 mM MgCl2, 10 mM KCl, 5 mM β-mercaptoethanol, 2 mg/mL ONPG) was added to each well and the plates were incubated at 37° C. The sample absorbance, OD405, was measured using a 96-well plate reader (Molecular Devices). The relative protein was determined by adding 200 μL of 1:5 dilution BioRad G250 protein dye:water to the 10 μL of cell lysate sample taken previously, and the OD595 was measured on a 96-well plate reader (Molecular Devices). Data points were normalized to forskolin and the relative protein content were used as positive controls. The EC50 values represent the mean of three or more independent experiments. The EC50 estimates, and their associated standard errors of the mean, were determined by fitting the data to a nonlinear least-squares analysis using the PRISM program (v4.0, GraphPad Inc.).
(§3) The results are tabulated in the form of EC50 values. In the case where the particular receptor was not activated to full activity at 100,000 nM, then the relative activity was reported.

[2] = biological target: mMC5R (Mus musculus, UniProt P41149); test: cAMP based functional bioassay (CRE/β-galactosidase reporter), agonist activity at mMC5R; conditions: for mMC5R Activity @ 10 μM (class) / mMC5R Activity @ 10 μM (relative activity, percent): reported where receptor not activated to full activity
Sequence of mMC5R (P41149 whole entry): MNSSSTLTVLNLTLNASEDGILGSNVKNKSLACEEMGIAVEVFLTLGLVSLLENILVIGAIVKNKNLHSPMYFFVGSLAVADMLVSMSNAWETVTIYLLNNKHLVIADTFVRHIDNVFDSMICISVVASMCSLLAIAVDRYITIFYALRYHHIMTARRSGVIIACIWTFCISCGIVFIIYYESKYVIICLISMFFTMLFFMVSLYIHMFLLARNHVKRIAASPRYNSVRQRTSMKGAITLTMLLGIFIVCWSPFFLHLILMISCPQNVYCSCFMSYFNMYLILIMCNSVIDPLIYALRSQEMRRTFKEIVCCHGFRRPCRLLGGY
Method: as §1, §2, §3

[3] = biological target: mMC3R (Mus musculus, UniProt P33033); test: cAMP based functional bioassay (CRE/β-galactosidase reporter), agonist activity at mMC3R; conditions: reported where receptor not activated to full activity
Sequence of mMC3R (P33033 whole entry): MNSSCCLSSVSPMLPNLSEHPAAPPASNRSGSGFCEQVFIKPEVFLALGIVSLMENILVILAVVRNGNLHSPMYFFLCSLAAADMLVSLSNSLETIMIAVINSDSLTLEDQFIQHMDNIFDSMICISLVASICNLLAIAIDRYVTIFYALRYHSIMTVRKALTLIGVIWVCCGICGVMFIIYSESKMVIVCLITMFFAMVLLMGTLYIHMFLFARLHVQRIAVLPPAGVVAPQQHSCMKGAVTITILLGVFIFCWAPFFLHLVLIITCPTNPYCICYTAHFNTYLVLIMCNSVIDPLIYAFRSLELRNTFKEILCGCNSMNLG
Method: as §1, §2, §3

[4] = biological target: mMC4R (Mus musculus, UniProt P56450); test: cAMP based functional bioassay (CRE/β-galactosidase reporter), agonist activity at mMC4R; conditions: for mMC4R Activity @ 10 μM (class) / mMC4R Activity @ 10 μM (relative activity, percent): reported where receptor not activated to full activity
Sequence of mMC4R (P56450 whole entry): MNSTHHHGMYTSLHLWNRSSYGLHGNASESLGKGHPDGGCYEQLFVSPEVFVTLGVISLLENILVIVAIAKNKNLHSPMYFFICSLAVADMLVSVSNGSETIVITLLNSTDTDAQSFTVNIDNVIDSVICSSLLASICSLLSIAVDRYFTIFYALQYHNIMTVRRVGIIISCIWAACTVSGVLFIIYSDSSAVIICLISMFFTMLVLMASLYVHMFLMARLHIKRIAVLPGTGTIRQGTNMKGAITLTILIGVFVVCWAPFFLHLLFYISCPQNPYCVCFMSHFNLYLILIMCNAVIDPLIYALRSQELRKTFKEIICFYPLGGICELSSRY
Method: as §1, §2, §3

[5] = reported where receptor not activated to full activity

Sequence of mMC1R (Q01727 whole entry): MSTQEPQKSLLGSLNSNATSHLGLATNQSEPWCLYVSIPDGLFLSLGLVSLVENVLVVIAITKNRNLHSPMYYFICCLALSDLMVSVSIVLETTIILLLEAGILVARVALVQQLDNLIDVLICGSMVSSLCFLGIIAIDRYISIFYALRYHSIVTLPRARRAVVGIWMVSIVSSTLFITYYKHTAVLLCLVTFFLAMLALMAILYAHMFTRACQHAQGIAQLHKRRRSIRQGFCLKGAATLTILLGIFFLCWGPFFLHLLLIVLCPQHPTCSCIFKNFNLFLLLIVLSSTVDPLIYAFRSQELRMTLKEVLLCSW

SMILES: CC(C)C[C@@H]1CNC(=N)N1C[C@@H]1CCCN1C[C@@H](Cc1ccccc1)N1C[C@@H](C(C)C)N(CC2CCC(C(C)(C)C)CC2)C1=N (stereo partly drawn) [TPI 2509-20, (R)-3-((4-(tert-butyl)cyclohexyl)methyl)-1-((R)-1-((S)-2-(((R)-2-imino-5-isobutylimidazolidin-1-yl)methyl)pyrrolidin-1-yl)-3-phenylpropan-2-yl)-4-isopropylimidazolidin-2-imine]
EC50 [1]: 6.8 ± 0.6 µM
EC50 [2]: 0.56 ± 0.17 µM
mMC3R Activity @ 10 μM (class) [3]: B (B: >51%)
mMC3R Activity @ 10 μM (relative activity, percent) [3]: 62%

SMILES: CCC[C@@H]1CN([C@H](Cc2ccccc2)CN2CCC[C@H]2CN2C(=N)NC[C@H]2CC(C)C)C(=N)N1CCCC(C)C [TPI 2509-18, (R)-1-((R)-1-((S)-2-(((R)-2-imino-5-isobutylimidazolidin-1-yl)methyl)pyrrolidin-1-yl)-3-phenylpropan-2-yl)-3-(4-methylpentyl)-4-propylimidazolidin-2-imine]
EC50 [2]: 2.18 ± 0.625 µM
mMC4R Activity @ 10 μM (class) [4]: B (B: >51%)

SMILES: CC(C)CCCN1C(=N)N([C@H](Cc2ccccc2)CN2CCC[C@H]2CN2C(=N)NC[C@H]2CC(C)C)C[C@H]1[C@@H](C)O [TPI 2509-15, (R)-1-((S)-2-imino-1-((R)-1-((S)-2-(((R)-2-imino-5-isobutylimidazolidin-1-yl)methyl)pyrrolidin-1-yl)-3-phenylpropan-2-yl)-3-(4-methylpentyl)imidazolidin-4-yl)ethanol]
mMC1R Activity @ 10 μM (class) [1, 5]: B (B: >51%)
mMC1R Activity @ 10 μM (relative activity, percent) [1, 5]: 62%
mMC5R Activity @ 10 μM (class) [2]: B (B: >51%)
mMC5R Activity @ 10 μM (relative activity, percent) [2]: 77%

SMILES: CC(C)CCCN1C(=N)N([C@H](Cc2ccccc2)CN2CCC[C@H]2CN2C(=N)NC[C@H]2CC(C)C)C[C@H]1C(C)C [TPI 2509-21, (R)-1-((R)-1-((S)-2-(((R)-2-imino-5-isobutylimidazolidin-1-yl)methyl)pyrrolidin-1-yl)-3-phenylpropan-2-yl)-4-isopropyl-3-(4-methylpentyl)imidazolidin-2-imine]
EC50 [2]: 1.26 ± 0.13 µM
mMC3R Activity @ 10 μM (class) [3]: A (A: <50%)
mMC4R Activity @ 10 μM (class) [4]: A (A: <50%)

SMILES: CC(=O)N[C@@H](Cc1c[nH]cn1)C(=O)N[C@H](Cc1ccccc1)C(=O)N[C@@H](CCCNC(=N)N)C(=O)N[C@@H](Cc1c[nH]c2ccccc12)C(N)=O [Ac-His-DPhe-Arg-Trp-NH2, reference compound]
EC50 ([2]; read-out: mMC5R Mean ± SEM (agonist EC50), HEK-293 cells, mean of three or more experiments): 0.0042 ± 0.001 µM
EC50 ([4]; read-out: mMC4R Mean ± SEM (agonist EC50), HEK-293 cells, mean of three or more experiments): 0.0055 ± 0.0008 µM

Results, then the compound that gave them:

mMC1R Activity @ 10 μM (class) [1, 5]: B (B: >51%)
mMC5R Activity @ 10 μM (class) [2]: A (A: <50%)
mMC5R Activity @ 10 μM (relative activity, percent) [2]: 40%
SMILES: CC(C)CCCN1C(=N)N([C@H](Cc2ccccc2)CN2CCC[C@H]2CN2C(=N)NC[C@H]2C(C)C)C[C@H]1[C@@H](C)O [TPI 2509-33, (R)-1-((S)-2-imino-1-((R)-1-((S)-2-(((R)-2-imino-5-isopropylimidazolidin-1-yl)methyl)pyrrolidin-1-yl)-3-phenylpropan-2-yl)-3-(4-methylpentyl)imidazolidin-4-yl)ethanol]

EC50 [1]: 10.2 ± 6.57 µM
EC50 [2]: 1.6 ± 0.46 µM
mMC4R Activity @ 10 μM (class) [4]: A (A: <50%)
mMC4R Activity @ 10 μM (relative activity, percent) [4]: 21%
SMILES: CC(C)CCCN1C(=N)N([C@H](Cc2ccccc2)CN2CCC[C@H]2CN2C(=N)NC[C@H]2C(C)C)C[C@H]1C(C)C [TPI 2509-39, (R)-1-((R)-1-((S)-2-(((R)-2-imino-5-isopropylimidazolidin-1-yl)methyl)pyrrolidin-1-yl)-3-phenylpropan-2-yl)-4-isopropyl-3-(4-methylpentyl)imidazolidin-2-imine]

EC50 [1]: 22.9 ± 10 µM
EC50 [2]: 2.03 ± 0.98 µM
mMC4R Activity @ 10 μM (class) [4]: A (A: <50%)
mMC4R Activity @ 10 μM (relative activity, percent) [4]: 41%
SMILES: CCC[C@@H]1CN([C@H](Cc2ccccc2)CN2CCC[C@H]2CN2C(=N)NC[C@H]2C(C)C)C(=N)N1CCCC(C)C [TPI 2509-36, (R)-1-((R)-1-((S)-2-(((R)-2-imino-5-isopropylimidazolidin-1-yl)methyl)pyrrolidin-1-yl)-3-phenylpropan-2-yl)-3-(4-methylpentyl)-4-propylimidazolidin-2-imine]
